Laboratory results reported in patent publication US11730792B2, “Coversin (OmCI) for the treatment of autoimmune blistering diseases: bullous pemphigoid (BP) and epidermolysis bullosa acquisita (EBA)” (VOLUTION IMMUNO PHARMACEUTICALS SA, priority 2017, dated 2023).
Entries after “also recorded” stand apart in the source; their conditions may differ.

Legend:
Experimental EBA [1] = settings: ref [44], cited from earlier work
[2] = target: T1, Ornithodoros moubata Coversin (EV576, OmCI), amino acids 19 to 168 of SEQ ID NO: 2 (SEQ ID NO: 4) (Ornithodoros moubata, UniProt Q5YD59); test: LTB4 binding to Coversin by fluorescence titration
T1 sequence (Q5YD59 19-168): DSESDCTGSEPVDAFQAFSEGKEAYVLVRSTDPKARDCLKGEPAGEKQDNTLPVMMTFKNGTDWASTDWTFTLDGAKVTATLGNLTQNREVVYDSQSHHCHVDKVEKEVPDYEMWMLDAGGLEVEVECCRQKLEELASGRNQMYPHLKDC
Method: This may be carried out by may be carried out as follows:
Purified 100 nM solutions of Coversin, in 2 mL PBS were applied in a quartz cuvette (10 mm path length; Hellma, Malheim, Germany) equipped with a magnetic stirrer. Temperature was adjusted to 20° C. and, after equilibrium was reached, protein Tyr/Trp fluorescence was excited at 280 nm (slit width: 15 nm). The fluorescence emission was measured at 340 nm (slit width: 16 nm) corresponding to the emission maximum. […] For calculation of the KD value, data was normalized to an initial fluorescence intensity of 100%, the inner filter effect was corrected using a titration of 3 μM N-acetyl-tryptophanamide solution and data was plotted against the corresponding ligand concentration. Then, non-linear least squares regression based on the law of mass action for bimolecular complex formation was used to fit the data with Origin software version 8.5 (OriginLab, Northampton, Mass., USA) using a published formula (Breustedt et al., 2006).

C5 [3] = target: T2, C5 (Homo sapiens, UniProt P01031); settings: surface plasmon resonance, ref [31]; cited from earlier work
Target sequence in this assay (P01031 19-1676): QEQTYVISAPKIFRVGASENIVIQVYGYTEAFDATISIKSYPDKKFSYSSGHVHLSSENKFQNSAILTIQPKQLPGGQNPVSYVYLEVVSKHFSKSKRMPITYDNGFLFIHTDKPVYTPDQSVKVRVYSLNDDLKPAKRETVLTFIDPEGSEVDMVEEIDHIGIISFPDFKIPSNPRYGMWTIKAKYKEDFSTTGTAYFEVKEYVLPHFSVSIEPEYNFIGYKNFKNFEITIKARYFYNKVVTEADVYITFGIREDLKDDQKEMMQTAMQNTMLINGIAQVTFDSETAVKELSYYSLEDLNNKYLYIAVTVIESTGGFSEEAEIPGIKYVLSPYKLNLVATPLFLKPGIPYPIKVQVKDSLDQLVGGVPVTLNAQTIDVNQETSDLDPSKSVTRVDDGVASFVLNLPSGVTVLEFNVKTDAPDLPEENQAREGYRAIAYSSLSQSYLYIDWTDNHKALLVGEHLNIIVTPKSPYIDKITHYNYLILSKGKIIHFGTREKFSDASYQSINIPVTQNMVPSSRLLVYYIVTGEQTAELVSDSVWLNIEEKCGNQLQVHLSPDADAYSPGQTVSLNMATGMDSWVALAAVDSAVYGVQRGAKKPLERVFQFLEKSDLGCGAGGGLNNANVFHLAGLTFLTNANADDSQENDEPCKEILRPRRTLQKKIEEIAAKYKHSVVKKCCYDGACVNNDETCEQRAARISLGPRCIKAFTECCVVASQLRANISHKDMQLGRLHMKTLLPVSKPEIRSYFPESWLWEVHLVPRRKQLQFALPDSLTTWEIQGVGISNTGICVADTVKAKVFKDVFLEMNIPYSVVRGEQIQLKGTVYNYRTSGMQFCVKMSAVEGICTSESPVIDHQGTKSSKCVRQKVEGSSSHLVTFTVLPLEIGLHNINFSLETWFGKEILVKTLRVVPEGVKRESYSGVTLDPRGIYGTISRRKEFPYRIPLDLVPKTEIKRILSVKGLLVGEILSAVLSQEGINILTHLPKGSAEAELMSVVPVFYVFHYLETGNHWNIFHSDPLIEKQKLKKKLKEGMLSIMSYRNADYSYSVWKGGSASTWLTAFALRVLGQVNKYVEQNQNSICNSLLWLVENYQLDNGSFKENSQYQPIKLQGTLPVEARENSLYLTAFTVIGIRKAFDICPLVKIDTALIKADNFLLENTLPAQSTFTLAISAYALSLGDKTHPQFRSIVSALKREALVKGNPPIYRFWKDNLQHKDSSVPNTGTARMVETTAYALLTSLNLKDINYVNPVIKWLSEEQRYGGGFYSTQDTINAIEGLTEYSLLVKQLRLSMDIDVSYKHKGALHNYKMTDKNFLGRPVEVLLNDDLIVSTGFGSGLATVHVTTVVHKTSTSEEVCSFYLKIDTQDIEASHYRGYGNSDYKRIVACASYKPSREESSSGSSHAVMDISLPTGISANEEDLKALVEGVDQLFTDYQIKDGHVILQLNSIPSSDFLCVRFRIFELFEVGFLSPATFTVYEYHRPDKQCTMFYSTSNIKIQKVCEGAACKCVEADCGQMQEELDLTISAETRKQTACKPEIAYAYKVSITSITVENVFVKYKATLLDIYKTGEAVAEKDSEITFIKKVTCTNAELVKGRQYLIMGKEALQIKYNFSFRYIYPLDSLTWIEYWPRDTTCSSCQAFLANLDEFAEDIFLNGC

[4] = test system: Antibody transfer EBA-like skin inflammation; test: Passive EBA mouse model, Coversin administered therapeutically from day 5 (Example 2); assay type: in vivo, C57Bl/6J WT mice; settings: for Two-way ANOVA, vehicle control versus Coversin: all doses used, N=5 per group
Method: The study included the following experimental groups, with 5 mice in each experimental group: • 1. Vehicle (PBS) control group • 2. 125 μg/kg Coversin 2× daily s.c. • 3. 2500 μg/kg Coversin 2× daily s.c.
Antibody transfer EBA-like skin inflammation was induced, as described in Sezin et al.
The treatment of mice with Coversin started on Day 5 of the experiment (Day 0=day of first administration of anti-COL7 antibody). Afterwards, mice were injected 12 hourly s.c. in the scapular region with Coversin or vehicle control until the end of the experiment.
Disease severity was scored. […] The percentage of the absolute body surface affected by skin lesions (ABSA) was calculated. To score the disease, the mice were anesthetized every other day with a mixture of ketamine/xylazine administered i.p. starting day 4 of the experiment.
Two independent experiments were conducted according to this protocol.
Prior to the beginning of the experiment mean weight of the mice was calculated and 2.5 mg/kg and 0.125 mg/kg of the drug were prepared freshly to a final volume of 100 μl in PBS pH 7.2. The drug was prepared freshly, twice daily, 30 minutes before the final injection into the mice. Thereafter, based on the mean weight of the mice the drug was adjusted with PBS pH 7.2 to a concentration appropriate to provide the required mg/kg dose in a final volume of 100 μl. Drug was prepared freshly twice daily, 30 minutes before the final application into the animals. As a vehicle control 100 μl of PBS pH 7.2 was injected s.c into the mice.
ABSA between treatment groups was evaluated by two-way ANOVA conducted using GraphPad Prism 7.

C5 [5] = target: T3, C5 (Rattus norvegicus, UniProt P08650); test: Prevention of C5 cleavage by C5 convertase in rat serum; assay type: biochemical
T3 construct: from tissue; host or cells: rat serum
Excerpt: (§1) Coversin was isolated from the salivary glands of the tick Ornithodoros moubata. Coversin is an outlying member of the lipocalin family and is the first lipocalin family member shown to inhibit complement activation. Coversin inhibits the classical, alternative and lectin complement pathways by binding to C5 and preventing its cleavage by C5 convertase into C5a and C5b, thus inhibiting both the production of C5a, which is an active (e.g. proinflammatory) peptide, and the formation of the MAC.

experimental EBA [6] = test: Antibody transfer EBA model, Coversin administered prophylactically (Example 1); assay type: in vivo, mice; set-up: Two-way ANOVA, vehicle control versus Coversin: dose or concentration left out as unconfirmed; settings: for Two-way ANOVA, vehicle control versus Coversin: combined experiments 1 and 2; for percentage ABSA: prophylactic
Method: (§2) Antibody transfer EBA was induced using a modified version of the protocol described by Sitaru et al., 2005 [43]. Five mice were tested in each treatment group. […] Mice were injected subcutaneously twice daily with three varying doses of Coversin starting […] before the first injection of anti-Col7 IgG (day −2). This application was continued throughout the experiment until its last day on day 11. In the control groups the mice received only the vehicle subcutaneously, or 20 mg/kg methylprednisolone once daily.
To generate antibodies directed to murine type VII collagen (“anti-COL7”), New Zealand White rabbits were immunized with 200 μg of a protein mixture containing three different recombinant proteins (“Col7A, B, and C”) derived from the non-collagenous 1 (NC1) domain of collagen VII together with incomplete Freund's adjuvant. IgGs were isolated from the serum of immunized rabbits by use of protein G, and afterwards IgGs were affinity-purified with his-Col7 to specifically obtain rabbit anti-Col7 IgG. Antibodies were quality checked by determining the titer and the potency in the cryosection assay.
(§3) Starting on day 4, the extent of skin lesions was scored in each individual mouse every other day. […] The percentage of the total body surface affected by skin lesions (ABSA) was calculated.
Two independent experiments were conducted.

C5 [7] = target: T2, C5; test: Prevention of C5 cleavage by C5 convertase in human serum; assay type: biochemical; set-up: from tissue; host or cells: human serum
Excerpt: as §1
Target sequence in this assay (P01031 678-1676 limits assumed): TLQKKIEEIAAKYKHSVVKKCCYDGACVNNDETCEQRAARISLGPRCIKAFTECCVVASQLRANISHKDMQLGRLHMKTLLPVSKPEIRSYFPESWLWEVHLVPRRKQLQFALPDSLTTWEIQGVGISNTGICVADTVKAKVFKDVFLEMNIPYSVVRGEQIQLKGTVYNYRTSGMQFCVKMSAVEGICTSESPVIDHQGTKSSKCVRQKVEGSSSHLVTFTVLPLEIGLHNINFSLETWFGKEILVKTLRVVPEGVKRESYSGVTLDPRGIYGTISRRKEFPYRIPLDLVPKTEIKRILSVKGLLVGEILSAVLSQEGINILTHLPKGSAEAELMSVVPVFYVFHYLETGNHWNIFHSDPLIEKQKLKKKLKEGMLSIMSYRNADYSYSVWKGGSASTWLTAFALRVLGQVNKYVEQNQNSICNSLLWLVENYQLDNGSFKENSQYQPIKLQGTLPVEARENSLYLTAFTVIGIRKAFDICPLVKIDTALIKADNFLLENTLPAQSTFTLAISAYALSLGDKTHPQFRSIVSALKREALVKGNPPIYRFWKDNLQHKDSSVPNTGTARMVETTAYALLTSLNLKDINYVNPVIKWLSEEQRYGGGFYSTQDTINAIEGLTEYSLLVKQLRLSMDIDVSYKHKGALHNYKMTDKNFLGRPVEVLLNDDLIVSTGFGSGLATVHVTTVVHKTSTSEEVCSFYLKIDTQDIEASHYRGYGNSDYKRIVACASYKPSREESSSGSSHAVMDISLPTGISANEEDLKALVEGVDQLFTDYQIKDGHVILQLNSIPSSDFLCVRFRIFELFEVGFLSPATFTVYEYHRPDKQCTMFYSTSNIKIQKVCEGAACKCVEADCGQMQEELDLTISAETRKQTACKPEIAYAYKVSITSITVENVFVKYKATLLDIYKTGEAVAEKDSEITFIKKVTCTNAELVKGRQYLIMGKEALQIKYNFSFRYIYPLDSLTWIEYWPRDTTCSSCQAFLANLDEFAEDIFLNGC
Target sequence in this assay (P01031 19-673 partner limits assumed): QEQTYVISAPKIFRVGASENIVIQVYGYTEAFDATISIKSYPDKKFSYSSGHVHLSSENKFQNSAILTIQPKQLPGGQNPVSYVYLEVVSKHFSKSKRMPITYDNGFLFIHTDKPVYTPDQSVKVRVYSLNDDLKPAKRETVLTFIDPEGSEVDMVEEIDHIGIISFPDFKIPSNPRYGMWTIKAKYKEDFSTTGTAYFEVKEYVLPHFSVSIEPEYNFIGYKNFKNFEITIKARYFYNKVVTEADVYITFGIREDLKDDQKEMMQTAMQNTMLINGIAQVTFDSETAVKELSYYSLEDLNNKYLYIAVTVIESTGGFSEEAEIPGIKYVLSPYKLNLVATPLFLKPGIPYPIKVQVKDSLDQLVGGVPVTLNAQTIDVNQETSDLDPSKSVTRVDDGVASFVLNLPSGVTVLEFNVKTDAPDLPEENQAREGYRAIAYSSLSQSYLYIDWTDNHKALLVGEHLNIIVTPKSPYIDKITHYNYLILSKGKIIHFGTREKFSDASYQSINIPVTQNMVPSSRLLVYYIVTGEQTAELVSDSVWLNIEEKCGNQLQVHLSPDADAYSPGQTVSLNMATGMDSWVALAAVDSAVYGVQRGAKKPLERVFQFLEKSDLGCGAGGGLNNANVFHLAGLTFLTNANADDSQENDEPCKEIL

experimental EBA [8] = test: Experimental EBA, prophylactic PAS-L-Coversin versus Coversin (Example 4); assay type: in vivo, mice; settings: 2.5 mg/kg Coversin; for Clinical score of experimental EBA: prophylactic
Method: as §2, §3
In a further experiment, the effect of PAS-L-Coversin was assessed. Mice were treated with 0.1 mg/kg, 10 mg/kg, 1 mg/kg PAS-L-Coversin, or 2.5 mg/kg Coversin, with the experiment being carried out as described above. […] The sequence of the L-Coversin sequence is a variant of the mature Coversin sequence (SEQ ID NO: 4) in which the following residues have been modified: Ala44 to Asn, Met116 to Gln, Leu117 to Ser, Gly121 to Ala, Leu122 to Asp, Glu123 to Ala and Asp149 to Gly, (referred to as variant 2, sequence is dsesdctgse pvdafqafse gkeayvlvrs tdpkardclk gepNgekqdn tlpvmmtfkn gtdwastdwt ftldgakvta tlgnitqnre vvydsqshhc hvdkvekevp dyemwQSdag ADAveveccr qkleelasgr nqmyphlkGc (SEQ ID NO:23), where the changes relative to the native Coversin sequence of SEQ ID NO:4 are in capitals). Because of the higher molecule weight of the PAS-L-Cov, 10 mg/kg PAS-L-Cov corresponds to 2.5 mg/kg Coversin. In the first experiment (FIG. 6A) the 10 mg/kg dose but not 1 mg/kg or 0.1 mg/kg dose of PAS-L-Coversin reduced ABSA compared to control. In the second experiment (FIG. 6B), the 10 mg/kg dose and the 1 mg/kg but not the 0.1 mg/kg dose of PAS-L-Coversin reduced ABSA compared to control.

C5 [9] = target: T4, C5 (Mus musculus, UniProt P06684); test: Prevention of C5 cleavage by C5 convertase in mouse serum; assay type: biochemical
T4 construct: from tissue; host or cells: mouse serum
Excerpt: as §1

[10] = LTB4 binding of L-Coversin (method not given); settings: mutated Coversin sequence (variant 2)
C5 [11] = target: T2, C5; test: C5 binding of L-Coversin (method not given); settings: mutated Coversin sequence (variant 2)
Target sequence in this assay (P01031 19-1676): as the sequence (P01031 19-1676) above

T3 sequence (P08650 19-1681): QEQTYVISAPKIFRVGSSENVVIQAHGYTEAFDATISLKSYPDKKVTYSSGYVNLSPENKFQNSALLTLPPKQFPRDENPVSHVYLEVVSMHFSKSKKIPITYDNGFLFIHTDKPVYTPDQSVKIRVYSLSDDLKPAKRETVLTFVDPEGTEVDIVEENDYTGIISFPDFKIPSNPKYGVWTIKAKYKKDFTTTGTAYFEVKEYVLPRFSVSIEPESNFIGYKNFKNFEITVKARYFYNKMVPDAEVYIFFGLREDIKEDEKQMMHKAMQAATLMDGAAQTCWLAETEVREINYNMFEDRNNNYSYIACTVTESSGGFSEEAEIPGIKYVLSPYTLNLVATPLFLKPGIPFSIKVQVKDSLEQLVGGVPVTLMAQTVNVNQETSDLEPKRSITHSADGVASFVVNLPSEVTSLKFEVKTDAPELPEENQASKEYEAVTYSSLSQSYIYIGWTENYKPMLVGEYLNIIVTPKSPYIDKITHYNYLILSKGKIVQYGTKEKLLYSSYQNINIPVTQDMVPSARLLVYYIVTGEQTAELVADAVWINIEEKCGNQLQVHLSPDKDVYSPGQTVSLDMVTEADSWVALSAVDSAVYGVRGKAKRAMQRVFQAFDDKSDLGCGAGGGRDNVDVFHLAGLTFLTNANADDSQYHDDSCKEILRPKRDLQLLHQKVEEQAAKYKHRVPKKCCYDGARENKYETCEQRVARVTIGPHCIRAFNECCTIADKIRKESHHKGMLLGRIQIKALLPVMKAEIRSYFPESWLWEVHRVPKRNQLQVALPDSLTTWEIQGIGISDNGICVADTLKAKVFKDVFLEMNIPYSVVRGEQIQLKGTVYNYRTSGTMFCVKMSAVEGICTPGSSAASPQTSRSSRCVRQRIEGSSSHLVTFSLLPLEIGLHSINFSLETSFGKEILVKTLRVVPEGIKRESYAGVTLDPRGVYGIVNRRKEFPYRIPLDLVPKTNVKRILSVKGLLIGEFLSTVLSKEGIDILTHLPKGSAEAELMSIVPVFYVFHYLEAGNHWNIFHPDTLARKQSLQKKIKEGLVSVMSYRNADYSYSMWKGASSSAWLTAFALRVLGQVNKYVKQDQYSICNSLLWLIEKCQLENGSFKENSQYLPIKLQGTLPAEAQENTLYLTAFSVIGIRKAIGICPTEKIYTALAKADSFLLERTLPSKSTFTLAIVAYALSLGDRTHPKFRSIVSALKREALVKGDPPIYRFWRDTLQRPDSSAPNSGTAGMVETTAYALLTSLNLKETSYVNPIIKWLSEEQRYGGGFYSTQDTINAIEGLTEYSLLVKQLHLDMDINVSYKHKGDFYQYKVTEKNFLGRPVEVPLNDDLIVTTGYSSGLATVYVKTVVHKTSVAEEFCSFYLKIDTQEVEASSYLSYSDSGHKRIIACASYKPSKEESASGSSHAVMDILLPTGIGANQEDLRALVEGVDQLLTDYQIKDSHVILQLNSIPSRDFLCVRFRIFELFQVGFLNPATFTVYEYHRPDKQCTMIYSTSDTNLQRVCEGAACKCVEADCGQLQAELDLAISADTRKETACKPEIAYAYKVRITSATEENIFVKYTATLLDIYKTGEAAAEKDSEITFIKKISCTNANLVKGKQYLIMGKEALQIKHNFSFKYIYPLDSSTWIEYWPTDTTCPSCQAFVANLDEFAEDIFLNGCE

Molecule: CC(c1cc2ccccc2s1)N(O)C(N)=O (stereo not shown) [Zileuton, N-[1-(1-benzothien-2-yl)ethyl]-N-hydroxyurea]
- clinical score day 7 (Experimental EBA [1]; 0.6-0.8 mg/mouse/day in drinking water, female mice, control group 9.2±0.7): 5.9±0.5 % of affected surface body area
- disease severity as compared to control group (Experimental EBA [1]; from day 7 until end-point, 0.6-0.8 mg/mouse/day): significantly reduced disease severity

Molecule: CCCCC/C=C\C[C@@H](O)/C=C/C=C/C=C\[C@@H](O)CCCC(=O)O [LTB4, Leukotriene B4]
- Kd [2]: 0.2 to 0.3 nM

Molecule: Coversin: tick Ornithodoros moubata protein, amino acids 19 to 168 of SEQ ID NO: 2 (SEQ ID NO: 4); binds C5 and LTB4
- Kd (C5 [3]): 1 nM
- Two-way ANOVA, vehicle control versus Coversin ([4]; Experiment 1 (FIG. 7), females): significant differences
- ABSA ([4]; Experiment 1, 2.5 mg/kg Coversin, vehicle about 7%): effective in reducing ABSA
- skin inflammation measured by absolute body surface area affected (ABSA), dose dependence ([4]; Experiment 1, females, 125 and 2500 μg/kg 2× daily s.c. from day 5): dose-dependently ameliorated skin inflammation
- Two-way ANOVA, vehicle control versus Coversin ([4]; Experiment 2 (FIG. 8), males): significant differences
- skin inflammation, dose dependence ([4]; Experiment 2 (FIG. 8), males, 125 and 2500 μg/kg 2× daily s.c. from day 5): dose-dependently ameliorated skin inflammation
- skin inflammation measured by ABSA ([4]; Experiment 2, 2.5 mg/kg Coversin, vehicle peaked at about 4%): significantly (P<0.01) ameliorated skin inflammation
- deaths during treatment ([4]; the two experiments, up to day 12): no deaths
- IC50, binding C5 and preventing its cleavage by C5 convertase (C5 [5]): approximately 0.02 mg/ml
- Two-way ANOVA, vehicle control versus Coversin (experimental EBA [6]; dose 250): statistically significant difference
- Two-way ANOVA, vehicle control versus Coversin (experimental EBA [6]; dose 2500): statistically significant difference
- Clinical score of experimental EBA (experimental EBA [6]; combined results of experiments 1 and 2 (FIG. 5), all doses): ameliorated disease
- reduction of percentage ABSA compared with previously tested agents (Zileuton, methylprednisolone) (experimental EBA [6]; comparison with similar earlier experiments, particularly at 2.5 mg/kg and 0.25 mg/kg): to a greater degree; also recorded: greater effect
- Clinical score of experimental EBA (experimental EBA [6]; experiment 1 (FIG. 3), all doses of Coversin, vs vehicle control group and methylprednisolone group): ameliorated disease
- Clinical score of experimental EBA (experimental EBA [6]; experiment 2 (FIG. 4), all doses of Coversin, vs vehicle control group and methylprednisolone group): ameliorated disease
- significance of effect compared to vehicle control group (experimental EBA [6]; experiment 2 (FIG. 4), only at the 2.5 mg/kg dose): significant effect
- difference in ABSA between vehicle and treated (experimental EBA [6]; first experiment, 0.25 mg/kg dose, P 0.0023 by two tailed t-test): 63%
- mean ABSA score (SD) (experimental EBA [6]; first experiment, 0.25 mg/kg dose, day 10, vehicle 6.23+1.1): 2.65+0.4
- percentage ABSA (experimental EBA [6]; first experiment, Coversin 25 μg/kg s.c. twice daily): reduced
- percentage ABSA (experimental EBA [6]; first experiment, Coversin 250 μg/kg s.c. twice daily): further reduced
- percentage ABSA (experimental EBA [6]; first experiment, Coversin 2500 μg/kg s.c. twice daily): further reduced
- IC50, binding C5 and preventing its cleavage by C5 convertase (C5 [7]): approximately 0.02 mg/ml
- Clinical score of experimental EBA (experimental EBA [8]; Example 4, experiment 1 (FIG. 6A)): ameliorated disease
- Clinical score of experimental EBA (experimental EBA [8]; Example 4, experiment 2 (FIG. 6B)): ameliorated disease
- statistical significance of effect on ABSA (experimental EBA [8]; second experiment (FIG. 6B)): statistically significant effect
- IC50, binding C5 and preventing its cleavage by C5 convertase (C5 [9]): approximately 0.02 mg/ml

B1: L-Coversin: SEQ ID NO: 23; SEQ ID NO: 4 with Ala44Asn, Met116Gln, Leu117Ser, Gly121Ala, Leu122Asp, Glu123Ala, Asp149Gly (protein)
chain: DSESDCTGSEPVDAFQAFSEGKEAYVLVRSTDPKARDCLKGEPNGEKQDNTLPVMMTFKNGTDWASTDWTFTLDGAKVTATLGNLTQNREVVYDSQSHHCHVDKVEKEVPDYEMWQSDAGADAVEVECCRQKLEELASGRNQMYPHLKGC
modifications: Coversin variant 2
- LTB4 binding [10]: binds LTB4
- C5 binding (C5 [11]): does not bind C5
